From paper PMC10873978, “Novel tetrahydroisoquinolines as DHFR and CDK2 inhibitors: synthesis, characterization, anticancer activity and antioxidant properties” (BMC Chemistry, 2024)
Several values for one entry are separate records, joined by “and”; a condition that tells them apart may be missing. Equal entries are not always repeated. Where two headings read alike, the source gives them in different places.

Tests used:
MCF7 cell line = assay: In vitro cytotoxic activity, MTT method, MCF7; format: cell-based, human
Summary of the method: (§1)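 MTT assay: cells seeded at 10^5 cells/mL, grown 24 h at 37 °C to a monolayer, then exposed to serial tetrahydroisoquinoline concentrations at 37 °C. MTT (5 mg/mL stock) added for 1–5 h; OD read at 560 nm minus 620 nm background. Doxorubicin as positive control.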

A549 cell line = assay: In vitro cytotoxic activity, MTT method, A549; details: Homo sapiens, read-out: IC50 ± SD
Summary of the method: as §1

WI-38 cell line = assay: Cytotoxicity on normal cell line WI-38; format: cell-based, human; details: for IC50: read-out: Toxicity on WI38 IC50 ± SD; for % viability: human
[1] = Cytotoxicity on normal cell line WI-38; format: cell-based, human; details: human, % viability
IKB kinase B = biological target: T1, IKB kinase B (Homo sapiens, UniProt O14920); assay: IKB kinase inhibition; format: biochemical; details: IκB
T1 sequence (O14920 1-756): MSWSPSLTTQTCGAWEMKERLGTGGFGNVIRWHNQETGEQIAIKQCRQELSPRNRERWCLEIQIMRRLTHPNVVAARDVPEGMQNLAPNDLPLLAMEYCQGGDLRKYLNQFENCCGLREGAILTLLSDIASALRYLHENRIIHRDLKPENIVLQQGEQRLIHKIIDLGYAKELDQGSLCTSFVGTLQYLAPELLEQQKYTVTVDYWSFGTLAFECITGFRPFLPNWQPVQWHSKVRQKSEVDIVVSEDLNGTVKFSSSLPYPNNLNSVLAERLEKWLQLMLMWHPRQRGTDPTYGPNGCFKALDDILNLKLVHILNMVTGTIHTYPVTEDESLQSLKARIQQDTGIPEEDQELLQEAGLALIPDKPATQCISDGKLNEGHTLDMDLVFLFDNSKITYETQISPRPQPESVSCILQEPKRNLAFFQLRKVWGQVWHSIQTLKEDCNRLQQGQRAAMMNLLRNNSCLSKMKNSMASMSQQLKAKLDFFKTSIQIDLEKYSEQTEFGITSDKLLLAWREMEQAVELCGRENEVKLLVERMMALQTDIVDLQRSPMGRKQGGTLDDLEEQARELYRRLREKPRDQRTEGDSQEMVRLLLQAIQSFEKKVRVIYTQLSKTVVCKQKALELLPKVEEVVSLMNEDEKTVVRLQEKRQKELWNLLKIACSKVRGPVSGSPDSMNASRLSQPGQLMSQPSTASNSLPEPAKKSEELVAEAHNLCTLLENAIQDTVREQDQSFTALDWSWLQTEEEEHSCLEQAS

`COc1cccc2c1C(=O)c1c(O)c3c(c(O)c1C2=O)C[C@@](O)(C(=O)CO)C[C@@H]3O[C@H]1C[C@H](N)[C@H](O)[C@H](C)O1` [Doxorubicin, reference compound] showed an IC50 (MCF7 cell line; Homo sapiens, MCF7, MCF7 cell line, MTT) of 0.053 ± 0.002 µM, a Toxicity % (MCF7 cell line; MCF7, 0.0487 µMol) of 48.12% and a Viability % (MCF7 cell line; MCF7, 0.0487 µMol) of 51.88%. It also gave a Toxicity % (MCF7 cell line; MCF7, 0.0975 µMol) of 52.667%, a Viability % (MCF7 cell line; MCF7, 0.0975 µMol) of 47.34% and a Toxicity % (MCF7 cell line; MCF7, 0.195 µMol) of 56.34%. It also gave a Viability % (MCF7 cell line; MCF7, 0.195 µMol) of 43.66%, a Toxicity % (MCF7 cell line; MCF7, 0.391 µMol) of 62.87% and a Viability % (MCF7 cell line; MCF7, 0.391 µMol) of 37.13%. The Toxicity % (MCF7 cell line; MCF7, 0.781 µMol) was 73.56%, the Viability % (MCF7 cell line; MCF7, 0.781 µMol) was 26.44% and the Toxicity % (MCF7 cell line; MCF7, 1.562 µMol) was 80.23%. It also gave a Viability % (MCF7 cell line; MCF7, 1.562 µMol) of 19.77%, a Toxicity % (MCF7 cell line; MCF7, 3.125 µMol) of 90.87% and a Viability % (MCF7 cell line; MCF7, 3.125 µMol) of 9.13%. It also gave a Toxicity % (MCF7 cell line; MCF7, 6.25 µMol) of 93.45%, a Viability % (MCF7 cell line; MCF7, 6.25 µMol) of 6.55% and a Toxicity % (MCF7 cell line; MCF7, 12.5 µMol) of 97.46%. The Viability % (MCF7 cell line; MCF7, 12.5 µMol) was 2.542%, the Toxicity % (MCF7 cell line; MCF7, 25 µMol) was 98.45% and the Viability % (MCF7 cell line; MCF7, 25 µMol) was 1.556%. For the same compound, the IC50 (A549 cell line) was 0.218 ± 0.005 µM, the IC50 (WI-38 cell line; Homo sapiens, WI-38, normal human fetal lung fibroblast WI-38) was 11.4 µM and the “Selectivity index (SI)” value (WI-38 cell line; IC50 in WI-38 / IC50 in A549) was 52 and 52.4. The “% viability” value (WI-38 cell line; 1.55 µM) was 84.08%, the “% viability” value (WI-38 cell line; 3.25 µM) was 72.52% and the “% viability” value (WI-38 cell line; 12.5 µM) was 52.38%. For the same compound, the “% viability” value (WI-38 cell line; 25 µM) was 31.09%, the IC50 (WI-38 cell line; normal human fetal lung fibroblast WI-38) was 11.4 ± 0.37 µM and the viability at 1.55 µM [1] was 84.1%. For the same compound, the viability at 6.25 µM [1] was 64.5%, the viability at 12.5 µM [1] was 52.4% and the viability at 25 µM [1] was 31.1%.
With `NC(=O)Nc1sc(-c2ccc(F)cc2)cc1C(N)=O` [TPCA-1, reference compound] the “%inh” value (IKB kinase B; conc 0.01 (log -2)) was 32.5%, the “%inh” value (IKB kinase B; conc 0.1 (log -1)) was 53.6% and the “%inh” value (IKB kinase B; conc 1 (log 0)) was 71.3%. For the same compound, the “%inh” value (IKB kinase B; conc 10 (log 1)) was 88.6% and the “%inh” value (IKB kinase B; conc 100 (log 2)) was 95.2%.
